According to patent US20040224958A1, “Pyridopyrimidinone derivatives for treatment of neurodegenerative disease” (priority 2000, published 2004):

Assays:
[1] = target: cdk2/cyclinA (Homo sapiens, UniProt P24941); experiment: Cyclin-Dependent Kinase Assay cdk2/cyclinA; conditions: cdk2/A IC50
Procedure: Cyclin-Dependent Kinase Assays (cdk2/cyclinE, cdk2/cyclinA, cdc2/cyclinB)
All components except the ATP were added to the wells, and the plate was placed on a plate mixer for 2 minutes. The reaction was begun by addition of [^32P]ATP, and the plate was incubated at 25° C. for 15 minutes. The reaction was terminated by addition of 0.1 mL of 20% TCA. The plate was kept at 4° C. for at least 1 hour to allow the substrate to precipitate. The wells were then washed five times with 0.2 mL of 10% TCA and ^32p incorporation determined with a beta plate counter (Wallac Inc., Gaithersburg, Md.).

[2] = target: cdk4/D (Homo sapiens, UniProt P11802); experiment: Cyclin-Dependent Kinase 4 (cdk4) Assay; format: biochemical; conditions: read-out: cdk4/D IC50
[3] = target: cdc2/cyclinB (Homo sapiens, UniProt P06493); experiment: Cyclin-Dependent Kinase Assay cdc2/cyclinB
[4] = target: Cdk5/p25 (Homo sapiens, UniProt Q00535); experiment: Cyclin-Dependent Kinase 5 High Throughput Screening (cdk5-HTS) Assay; format: biochemical; conditions: high throughput screen
Outline: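 IC50 determined from 33P incorporation into GST-RbCOOH captured on glutathione plates and read by scintillation counting. Reaction: 1.0 μg/mL Cdk5/p25, 20 μM [γ33P]ATP, pH 7.4 Tris buffer with MgCl2 and DTT, 30 min at room temperature, stopped with EDTA.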

[5] = target: cdk2/cyclinE (Homo sapiens, UniProt P24941); experiment: Cyclin-Dependent Kinase Assay cdk2/cyclinE; conditions: cdk2/E IC50

cdk4/D, sequence (P11802 whole entry): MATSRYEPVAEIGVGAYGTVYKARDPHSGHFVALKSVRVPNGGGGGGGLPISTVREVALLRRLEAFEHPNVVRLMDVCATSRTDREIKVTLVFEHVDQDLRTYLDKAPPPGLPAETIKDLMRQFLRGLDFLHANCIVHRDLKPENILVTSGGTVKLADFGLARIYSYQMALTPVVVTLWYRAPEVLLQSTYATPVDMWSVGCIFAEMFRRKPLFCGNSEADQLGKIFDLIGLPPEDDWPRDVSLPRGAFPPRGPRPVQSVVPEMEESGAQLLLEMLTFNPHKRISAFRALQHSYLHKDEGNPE
cdk4/D, sequence (P24385 whole entry, further chain): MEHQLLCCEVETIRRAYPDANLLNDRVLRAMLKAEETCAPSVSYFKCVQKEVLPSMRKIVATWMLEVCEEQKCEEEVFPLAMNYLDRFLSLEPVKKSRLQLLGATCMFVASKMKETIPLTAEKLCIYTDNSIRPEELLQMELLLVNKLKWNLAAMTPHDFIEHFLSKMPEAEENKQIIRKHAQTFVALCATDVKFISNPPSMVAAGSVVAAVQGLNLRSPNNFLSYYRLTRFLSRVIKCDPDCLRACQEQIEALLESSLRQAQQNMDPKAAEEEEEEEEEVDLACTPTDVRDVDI
cdc2/cyclinB, sequence (P06493 whole entry): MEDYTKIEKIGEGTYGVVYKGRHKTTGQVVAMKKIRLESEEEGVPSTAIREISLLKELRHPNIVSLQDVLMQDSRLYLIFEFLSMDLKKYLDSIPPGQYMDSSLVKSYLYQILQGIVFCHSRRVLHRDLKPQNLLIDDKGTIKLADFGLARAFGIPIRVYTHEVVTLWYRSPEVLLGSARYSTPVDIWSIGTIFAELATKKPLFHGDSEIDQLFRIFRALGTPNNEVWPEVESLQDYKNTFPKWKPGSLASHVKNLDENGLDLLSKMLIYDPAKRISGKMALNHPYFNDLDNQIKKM
cdc2/cyclinB, sequence (P14635 whole entry, further chain): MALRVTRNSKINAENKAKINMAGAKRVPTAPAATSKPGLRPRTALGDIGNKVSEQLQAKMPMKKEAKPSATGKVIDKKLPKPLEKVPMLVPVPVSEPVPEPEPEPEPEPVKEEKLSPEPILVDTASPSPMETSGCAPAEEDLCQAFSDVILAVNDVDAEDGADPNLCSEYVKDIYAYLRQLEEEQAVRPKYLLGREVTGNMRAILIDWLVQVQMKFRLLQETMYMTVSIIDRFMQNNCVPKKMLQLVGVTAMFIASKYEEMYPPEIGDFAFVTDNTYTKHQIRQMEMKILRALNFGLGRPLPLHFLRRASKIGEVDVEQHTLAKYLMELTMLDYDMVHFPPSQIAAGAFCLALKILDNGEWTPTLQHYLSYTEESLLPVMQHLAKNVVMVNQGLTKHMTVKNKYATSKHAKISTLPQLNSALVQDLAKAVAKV

CCC(C)n1c(=O)ccc2cnc(Nc3ccc(OC)c(OC)c3)nc21 (centres unmarked) [Example 454, 8-sec-Butyl-2-(3,4-dimethoxy-phenylamino)-8H-pyrido[2,3-d]pyrimidin-7-one]
IC50 [1]: 115 nM | IC50 [2]: 262 nM | IC50 [3]: 59.5 nM | IC50 [4]: 21.5 nM | IC50 [5]: 68.3 nM

CCCn1c(=O)ccc2cnc(Nc3ccc(N(C)C(C)=O)cc3)nc21 [Example 345, N-Methyl-N-[4-(7-oxo-8-propyl-7,8-dihydro-pyrido[2,3-d]pyrimidin-2-ylamino)-phenyl]-acetamide]
IC50 [1]: 830 nM | IC50 [2]: 160 nM | IC50 [3]: 590 nM | IC50 [4]: 160 nM | IC50 [5]: 430 nM

O=c1ccc2cnc(Nc3ccc4c(c3)CCC4)nc2n1CC1CC1 [Example 587, 8-Cyclopropylmethyl-2-(indan-5-ylamino)-8H-pyrido[2,3-d]pyrimidin-7-one]
IC50 [1]: 440 nM | IC50 [2]: 200 nM | IC50 [3]: 360 nM | IC50 [4]: 160 nM | IC50 [5]: 81 nM

CCCCn1c(=O)ccc2cnc(Nc3cc(C)cc(C)c3)nc21 [Example 399, 8-Butyl-2-(3,5-dimethyl-phenylamino)-8H-pyrido[2,3-d]pyrimidin-7-one]
IC50 [1]: 310 nM | IC50 [2]: 920 nM | IC50 [3]: 63 nM | IC50 [4]: 14 nM | IC50 [5]: 50 nM

O=c1ccc2cnc(Nc3cccc(C(F)(F)F)c3)nc2n1C1CCCC1 [Example 530, 8-Cyclopentyl-2-(3-trifluoromethyl-phenylamino)-8H-pyrido[2,3-d]pyrimidin-7-one]
IC50 [1]: 250 nM | IC50 [2]: 1700 nM | IC50 [3]: 220 nM | IC50 [4]: 99 nM | IC50 [5]: 180 nM

CCCCn1c(=O)ccc2cnc(Nc3cc(OC)cc(C(F)(F)F)c3)nc21 [Example 396, 8-Butyl-2-(3-methoxy-5-trifluoromethyl-phenylamino)-8H-pyrido[2,3-d]pyrimidin-7-one]
IC50 [1]: 2600 nM | IC50 [2]: 1100 nM | IC50 [3]: 600 nM | IC50 [4]: 590 nM | IC50 [5]: 300 nM

CCCCn1c(=O)ccc2cnc(Nc3cc([N+](=O)[O-])ccc3F)nc21 [Example 415, 8-Butyl-2-(2-fluoro-5-nitro-phenylamino)-8H-pyrido[2,3-d]pyrimidin-7-one]
IC50 [1]: 1100 nM | IC50 [2]: 490 nM | IC50 [3]: 1100 nM | IC50 [4]: 290 nM | IC50 [5]: 240 nM

CCCn1c(=O)ccc2cnc(Nc3cc(Cl)c(O)c(Cl)c3)nc21 [Example 328, 2-(3,5-Dichloro-4-hydroxy-phenylamino)-8-propyl-8H-pyrido[2,3-d]pyrimidin-7-one]
IC50 [1]: 75 nM | IC50 [2]: 690 nM | IC50 [3]: 80 nM | IC50 [4]: 92.5 nM | IC50 [5]: 35.3 nM

CCCn1c(=O)ccc2cnc(Nc3ccc4[nH]ccc4c3)nc21 [Example 323, 2-(1H-Indol-5-ylamino)-8-propyl-8H-pyrido[2,3-d]pyrimidin-7-one]
IC50 [1]: 250 nM | IC50 [2]: 71.5 nM | IC50 [3]: 82 nM | IC50 [4]: 53 nM | IC50 [5]: 86.5 nM

CC(C)(C)OC(=O)Nc1ccc(Nc2ncc3ccc(=O)n(CC4CC4)c3n2)cc1 [Example 565, [4-(8-Cyclopropylmethyl-7-oxo-7,8-dihydro-pyrido[2,3-d]pyrimidin-2-ylamino)-phenyl]-carbamic acid tert-butyl ester]
IC50 [1]: 510 nM | IC50 [2]: 385 nM | IC50 [3]: 365 nM | IC50 [4]: 290 nM | IC50 [5]: 193 nM

CCCn1c(=O)ccc2cnc(Nc3ccc(O)c(C)c3)nc21 [Example 354, 2-(4-Hydroxy-3-methyl-phenylamino)-8-propyl-8H-pyrido[2,3-d]pyrimidin-7-one]
IC50 [1]: 1100 nM | IC50 [2]: 910 nM | IC50 [3]: 1600 nM | IC50 [4]: 770 nM | IC50 [5]: 1200 nM

CCn1c(=O)ccc2cnc(Nc3ccc(NC(=O)OC(C)(C)C)cc3)nc21 [Example 288, [4-(8-Ethyl-7-oxo-7,8-dihydro-pyrido[2,3-d]pyrimidin-2-ylamino)-phenyl]-carbamic acid tert-butyl ester]
IC50 [1]: 1250 nM | IC50 [2]: 965 nM | IC50 [3]: 485 nM | IC50 [4]: 295 nM | IC50 [5]: 1060 nM

O=C1CSc2ccc(Nc3ncc4ccc(=O)n(CC5CC5)c4n3)cc2N1 [Example 584, 8-Cyclopropylmethyl-2-(3-oxo-3,4-dihydro-2H-1,4-benzothiazin-6-ylamino)-8H-pyrido[2,3-d]pyrimidin-7-one]
IC50 [1]: 140 nM | IC50 [2]: 98 nM | IC50 [3]: 170 nM | IC50 [4]: 39 nM | IC50 [5]: 100 nM

O=c1ccc2cnc(Nc3ccc(O)c(Cl)c3)nc2n1C1CCCC1 [Example 539, 2-(3-Chloro-4-hydroxy-phenylamino)-8-cyclopentyl-8H-pyrido[2,3-d]pyrimidin-7-one]
IC50 [1]: 33.5 nM | IC50 [2]: 23.5 nM | IC50 [3]: 28 nM | IC50 [4]: 23.5 nM | IC50 [5]: 14.3 nM

O=c1ccc2cnc(Nc3ccc(C(F)(F)F)cc3)nc2n1C1CCCC1 [Example 533, 8-Cyclopentyl-2-(4-trifluoromethyl-phenylamino)-81H-pyrido[2,3-d]pyrimidin-7-one]
IC50 [1]: 330 nM | IC50 [2]: 150 nM | IC50 [3]: 250 nM | IC50 [4]: 66 nM | IC50 [5]: 140 nM

CCCCn1c(=O)ccc2cnc(Nc3ccc(Cl)c(C)c3)nc21 [Example 388, 8-Butyl-2-(4-chloro-3-methyl-phenylamino)-8H-pyrido[2,3-d]pyrimidin-7-one]
IC50 [1]: 690 nM | IC50 [2]: 310 nM | IC50 [3]: 200 nM | IC50 [4]: 110 nM | IC50 [5]: 100 nM

COc1cc(Nc2ncc3ccc(=O)n(C(C)C)c3n2)cc(OC)c1OC [Example 417, 8-Isopropyl-2-(3,4,5-trimethoxy-phenylamino)-8H-pyrido[2,3-d]pyrimidin-7-one]
IC50 [1]: 870 nM | IC50 [2]: 3400 nM | IC50 [3]: 880 nM | IC50 [4]: 170 nM | IC50 [5]: 590 nM

O=c1ccc2cnc(Nc3ccc4[nH]c5ccccc5c4c3)nc2n1CC1CC1 [Example 582, 2-(9H-Carbazol-3-ylamino)-8-cyclopropylmethyl-8H-pyrido[2,3-d]pyrimidin-7-one]
IC50 [1]: 440 nM | IC50 [2]: 660 nM | IC50 [3]: 280 nM | IC50 [4]: 190 nM | IC50 [5]: 250 nM

CCCn1c(=O)ccc2cnc(Nc3ccc(F)cc3)nc21 [Example 332, 2-(4-Fluoro-phenylamino)-8-propyl-8H-pyrido[2,3-d]pyrimidin-7-one]
IC50 [1]: 1310 nM | IC50 [2]: 2050 nM | IC50 [3]: 1050 nM | IC50 [4]: 590 nM | IC50 [5]: 417 nM

CCCn1c(=O)ccc2cnc(Nc3ccc(F)c(Cl)c3)nc21 [Example 369, 2-(3-Chloro-4-fluoro-phenylamino)-8-propyl-8H-pyrido[2,3-d]pyrimidin-7-one]
IC50 [1]: 287 nM | IC50 [2]: 526 nM | IC50 [3]: 129 nM | IC50 [4]: 85.3 nM | IC50 [5]: 71.9 nM

CCC(C)n1c(=O)ccc2cnc(Nc3ccccc3)nc21 (centres unmarked) [Example 446, 8-sec-Butyl-2-phenylamino-8H-pyrido[2,3-d]pyrimidin-7-one]
IC50 [1]: 215 nM | IC50 [2]: 168 nM | IC50 [3]: 340 nM | IC50 [4]: 74.5 nM | IC50 [5]: 177 nM

CCC(CC)n1c(=O)ccc2cnc(Nc3ccc(Cl)c(C(F)(F)F)c3)nc21 [Example 486, 2-(4-Chloro-3-trifluoromethyl-phenylamino)-8-(1-ethyl-propyl)-8H-pyrido[2,3-d]pyrimidin-7-one]
IC50 [1]: 920 nM | IC50 [2]: 1030 nM | IC50 [3]: 218 nM | IC50 [4]: 82.8 nM | IC50 [5]: 467 nM

CCCCn1c(=O)ccc2cnc(Nc3ccc4[nH]ccc4c3)nc21 [Example 378, 8-Butyl-2-(1H-indol-5-ylamino)-8H-pyrido[2,3-d]pyrimidin-7-one]
IC50 [1]: 340 nM | IC50 [2]: 97.5 nM | IC50 [3]: 150 nM | IC50 [4]: 96.5 nM | IC50 [5]: 86 nM

O=c1[nH]c2ccc(Nc3ncc4ccc(=O)n(CC5CC5)c4n3)cc2[nH]1 [Example 577, 8-Cyclopropylmethyl-2-(2-oxo-2,3-dihydro-1H-benzimidazol-5-ylamino)-8H-pyrido[2,3-d]pyrimidin-7-one]
IC50 [1]: 120 nM | IC50 [2]: 230 nM | IC50 [3]: 120 nM | IC50 [4]: 92 nM | IC50 [5]: 110 nM

CCC(CC)n1c(=O)ccc2cnc(Nc3cc(Cl)c(N)c(Cl)c3)nc21 [Example 521, 2-(4-Amino-3,5-dichloro-phenylamino)-S-(1-ethyl-propyl)-8H-pyrido[2,3-d]pyrimidin-7-one]
IC50 [1]: 220 nM | IC50 [2]: 67 nM | IC50 [3]: 67 nM | IC50 [4]: 42 nM | IC50 [5]: 98 nM

CCCn1c(=O)ccc2cnc(Nc3cc(F)c(F)c(F)c3)nc21 [Example 359, 8-Propyl-2-(3,4,5-trifluoro-phenylamino)-8H-pyrido[2,3-d]pyrimidin-7-one]
IC50 [1]: 430 nM | IC50 [2]: 1800 nM | IC50 [3]: 390 nM | IC50 [4]: 180 nM | IC50 [5]: 450 nM

CCCCn1c(=O)ccc2cnc(Nc3ccc4[nH]ncc4c3)nc21 [Example 379, 8-Butyl-2-(1H-indazol-5-ylamino)-8H-pyrido[2,3-d]pyrimidin-7-one]
IC50 [1]: 84 nM | IC50 [2]: 140 nM | IC50 [3]: 43 nM | IC50 [4]: 46.5 nM | IC50 [5]: 27.3 nM

CCCCn1c(=O)ccc2cnc(Nc3cc(F)cc(F)c3)nc21 [Example 404, 8-Butyl-2-(3,5-difluoro-phenylamino)-8H-pyrido[2,3-d]pyrimidin-7-one]
IC50 [1]: 650 nM | IC50 [2]: 1900 nM | IC50 [3]: 610 nM | IC50 [4]: 280 nM | IC50 [5]: 300 nM
